Test results taken from article PMC7459823, “Characterization of Five Novel Anti-MRSA Compounds Identified Using a Whole-Animal Caenorhabditis elegans/Galleria mellonella Sequential-Screening Approach” (Antibiotics, 2020).
Values after ≈ are worked out from the molar mass of the structure shown.

Key:
[1] = test system: MRSA MW2 infection of Galleria mellonella larvae; test: G. mellonella–MRSA survival assay; format: in vivo; conditions: larvae infected with MRSA MW2 5 × 10^5 CFU, compound 10 mg/kg 2 h after infection, monitored 120 h; untreated 1 day
Experimental: Larvae were infected with MRSA MW2 (5 × 10^5 CFU) in the left rear proleg, and after two hours, the compounds were introduced separately at 10 mg/kg into the right rear proleg and larvae survival was monitored for 120 h.
Assays were performed as described previously. Briefly, sixteen randomly selected G. mellonella larvae (Vanderhorst, Inc., St. Mary’s, OH, USA) between 300–350 mg were used for each test group. MRSA-MW2 was grown in Tryptic Soy Broth (TSB), washed with phosphate buffered saline (PBS, pH = 7.4), and diluted to OD600 = 0.3 before inoculation into G. mellonella larvae. A 10-μL inoculum was injected into the last left proleg using a 10-μL Hamilton syringe. After 2 h, compounds were administered into the last right proleg and larvae were incubated at 37 °C. G.mellonella survival was monitored for 120 h, and death was confirmed when there was no response. Killing curves and differences in survival were analyzed by the Kaplan–Meier method using GraphPad Prism version 8 (GraphPad Software, La Jolla, CA, USA). Statistical analysis (Kruskal–Wallis test) was carried out using the same program.

[2] = test system: MRSA-MW2; test: Checkerboard synergy assay (FIC index); format: cell-based, Staphylococcus aureus; conditions: synergy FIC ≤ 0.5
Experimental: The combination of two antibiotics with different modes of action can reduce bacterial resistance and sometimes even restore clinical efficacy of an antibiotic that has lost effectiveness. The five compounds were tested against MRSA-MW2 in the presence of five clinical antibiotics from different classes (i.e., polymyxin B, gentamycin, erythromycin, doxycycline, and oxacillin).
Antibacterial synergy for combinations of the compounds with each other and with clinical antibiotics (doxycycline, gentamicin, polymyxin-B, oxacillin, and erythromycin) was measured using checkerboard assays. In short, Cultures of MRSA-MW2 were adjusted to OD600 = 0.06 and one compound was arrayed horizontally and other vertically in 96 well plates. The assays were carried out in triplicate, exactly as described for the antibacterial susceptibility assays. The inhibitory effects of compound combinations were evaluated using the Fractional Inhibitory Concentration (FIC) index, derived from the formula:FIC index = FICA + FICB = [A]/MICA + [B]/MICB
MIC of substance A tested in combination /MIC of substance A tested alone + MIC of substance B tested in combination/MIC of substance B tested alone. Synergy is indicated when FIC ≤ 0.5, indifference when 0.5 ≤ FIC ≤ 4, and antagonism when FIC > 4. Experiments were performed in duplicate and report the average FIC index.

[3] = test system: HepG2; conditions: human, 24 h
Experimental: Mammalian cell lines HepG2 (hepatic cells), A549 (epithelial cells), and MKN-28 (gastric cells) were used to measure the anti-proliferative properties of test compounds, as described elsewhere [28]. Cells were grown in Dulbecco’s Modified Eagle Medium (DMEM) (Gibco, Waltham, MA, USA) supplemented with 10% Fetal Bovine Serum (FBS) (Gibco, Waltham, MA, USA) and 1% penicillin/streptomycin (Gibco, Waltham, MA, USA) and maintained at 37 °C in 5% CO2. After harvesting, the cells were suspended in DMEM and 100 µL was added to the wells of 96-well plates. The test compounds were serially diluted in serum and antibiotic free DMEM, added to the monolayer of cells, and incubated at 37 °C in 5% CO2 for 24 hr. Percentage survival was calculated by comparison to DMSO-treated vehicle controls. Assays were carried out in triplicate.

[4] = test system: clinical S. aureus isolate BF3; test: Broth microdilution MIC, clinical S. aureus isolate BF3; format: cell-based; conditions: Staphylococcus aureus; BF3; read-out: MIC
Experimental: (§1) In vitro antibacterial activities were determined using the broth microdilution method. Assays were performed as described in Clinical and Laboratory Standards Institute protocols in triplicate using cation-adjusted Muller–Hinton broth (Becton Dickinson and Company, Franklin Lakes, NJ, USA) in 96-well plates with a total assay volume of 100 µL. Two-fold serial dilutions of test compounds were prepared over the concentration range of 1–64 µg/mL. The bacterial concentration was adjusted to OD600 = 0.06. […] A 10 µL aliquot from each well in the MIC assays was plated onto Muller–Hinton agar (Becton Dickinson and Company, Franklin Lakes, NJ, USA) and incubated overnight at 37 °C. The lowest concentration of compound for which no growth was observed on agar plates was reported as the minimal bactericidal concentration (MBC).

[5] = test system: clinical S. aureus isolate BF1; test: Broth microdilution MIC, clinical S. aureus isolate BF1; format: cell-based; conditions: Staphylococcus aureus; BF1; read-out: MIC
Experimental: as §1

[6] = test system: Enterobactor aerogens; test: Broth microdilution MIC, Enterobactor aerogens; format: cell-based; conditions: Enterobactor aerogens; read-out: MIC
Experimental: as §1

[7] = test system: Klebsiella pneumoniae; test: Broth microdilution MIC, Klebsiella pneumoniae; format: cell-based; conditions: read-out: MIC
Experimental: as §1

[8] = test system: MRSA MW2; test: Time-to-kill assay; format: cell-based, Staphylococcus aureus; conditions: MRSA MW2, compounds at 64 µg/mL, 4 hr; criteria MBC/MIC and 3 log10 CFU decrease
Excerpt: Time-to-kill assays were used to further probe bactericidal/bacteriostatic properties against MRSA MW2 (Figure 3). Antibacterial compounds are generally considered bactericidal, if the MBC is no more than four times higher than the MIC. Bactericidal activity is defined as greater than 3 log10 -fold decrease in colony forming units, which is equivalent to 99.9% killing of the inoculum. If the MBC is outside this range, compounds are bacteriostatic. According to these criteria, all five compounds were bacteriostatic.
Time-to-kill assays were performed as previously described. Briefly, overnight cultures of MRSA-MW2 were diluted in fresh Tryptic Soy Broth (TSB) to a density of 10^8 cells/mL and placed into 10 mL tubes (Becton Dickinson and Company, Franklin Lakes, NJ, USA). Test compounds dissolved in DMSO over the concentration range 4–64 µg/mL were added and the tubes incubated at 37 °C. At periodic intervals, aliquots from each tube were serially diluted with TSB and plated onto tryptic soy agar (TSA) (Becton Dickinson and Company, Franklin Lakes, NJ, USA). CFUs were enumerated after overnight incubation at 37 °C. Assays were carried out in triplicate.

[9] = test system: MRSA MW2; test: Sytox green membrane permeabilization; format: cell-based, Staphylococcus aureus; conditions: compounds at 64 µg/mL, monitored over 1 h
Experimental: To determine whether the compounds target bacterial membranes, MRSA MW2 was treated with the compounds and uptake of the membrane-impermeable DNA-binding fluorescent dye Sytox green was monitored over 1 h (Figure 4).
Sytox Green (Life Technologies, Needham, MA, USA) membrane permeabilization assays were performed as previously described. The experiments were carried out in duplicate in 96-well plates. Cells were grown to log phase and were harvested by centrifuging at 3700× g for 5 min. The cells were washed twice with PBS and resuspended to OD600 = 0.2, following which 5 µM Sytox green was added to the cells and the bacteria-dye mixture were incubated in the dark for 30 mins.
Cell suspensions (50 µL) were added to 50 µL of test compounds (64 µg/mL in PBS) and fluorescence intensity was measured (excitation 485 nm, emission 530 nm) periodically over 60 min.

MIC [4]: 2 µg/mL (≈ 4.2 µM) | MIC [5]: 2 µg/mL (≈ 4.2 µM) | MIC [6]: > 64 µg/mL | MIC [7]: > 64 µg/mL
SMILES: Cc1cc(I)ccc1Nc1c(C(=O)NOCC2CC2)cc(F)c(F)c1F [PD198306, N-(Cyclopropylmethoxy)-3,4,5-trifluoro-2-[(4-iodo-2-methylphenyl)amino]-benzamide]
median post-infection survival [1]: 2 days | Fractional Inhibitory Concentration (FIC) Index ([2]; with Doxycycline): 2.0 | Fractional Inhibitory Concentration (FIC) Index ([2]; with Erythromycin): 0.5 | Fractional Inhibitory Concentration (FIC) Index ([2]; with Gentamycin): 0.625 | Fractional Inhibitory Concentration (FIC) Index ([2]; with Oxacillin): 0.75 | Fractional Inhibitory Concentration (FIC) Index ([2]; with Polymyxin B): 1.0 | Eukaryotic cell cytotoxicity [3]: 2 µg/mL | bactericidal/bacteriostatic classification [8]: bacteriostatic | cellular fluorescence (Sytox green uptake) [9]: no changes in cellular fluorescence
